According to US10696971B2, “MrgprX2/MrgprB2 expressing cell based assay to detect pseudo-allergic drug reactions and to identify blockers to prevent the adverse reactions” (The Johns Hopkins University, priority 2014, dated 2020):

Assays:
WT and MrgprB2^MUT mice [1] = experiment: Hindpaw swelling and Evans Blue extravasation; type: in vivo, mouse
Procedure: Adult male mice up to 8 months of age were anesthetized with an i.p. injection of 50 mg/kg pentobarbital (Sigma). 15 minutes after induction of anesthesia, mice were injected i.v. with 50 μl of 12.5 mg/ml Evans Blue (Sigma) in saline. 5 minutes later, 5 μl of the test substance (or 7 μl of anti-IgE) was administered by intraplantar injection in one paw and saline was administered in the other paw. Paw thickness was measured by calipers immediately after injection. 15 minutes later (30 minutes after anti-IgE), paw thickness was measured again and mice were sacrificed by decapitation. Paw tissue was collected, dried for 24 hours at 50° C., and weighed. Evans Blue was extracted by a 24 hour incubation in formamide at 50° C., and the O.D. was read at 620 nm using a spectrophotometer. For studies using ketotifen, mice were injected i.p. with 25 μl of a 10 mg/ml solution of ketotifen at the same time as pentobarbital.

peritoneal mast cells = experiment: Mouse peritoneal mast cell histamine release assay; type: cell-based; details: WT vs MrgprB2^MUT peritoneal mast cells
Procedure: Mast cells were purified as with the calcium imaging assay and allowed to recover for 2 hours in DMEM with 10% FBS and 25 ng/ml mouse stem cell factor in a 37° C. incubator with 5% CO2. Cells were then spun down, resuspended in CIB, counted, and plated at 300 cells/well in 75 μl CIB in 96-well plates coated with 20 μg/ml fibronectin (Sigma). They were allowed to adhere to the substrate for 45 minutes at 37° C. in atmospheric conditions (i.e. CO2 levels were not adjusted) before assay. […] After 5 minutes, 40 μl of supernatant was aspirated, diluted with 40 μl CIB and frozen at −80° C. until histamine levels were determined. Anti-IgE treatment was similar, except that cells were incubated for 30 minutes at 37° C. after anti-IgE was added before aspiration of supernatant. Histamine content was determined by using an HTRF histamine assay kit (Cisbio Assays) according to the manufacturer's instructions.

LAD2 human mast cells = experiment: LAD2 degranulation assay (β-hexosaminidase release), with MrgprX2 siRNA knockdown; type: cell-based; details: compound 48/80 0.1, mastoparan 5, icatibant 10, atracurium 25, ciprofloxacin 75 μg/ml
Procedure: LAD2 cells were sensitized for 20 hours with 0.5 μg/ml biotin-conjugated human IgE (Abbiotec). Cells were washed, resuspended in Hepes buffer (10 mM HEPES, 137 mM NaCl, 2.7 mM KCl, 0.38 mM Na2HPO4.7H2O, 5.6 mM glucose, 1.8 mM CaCl2.H2O, 1.3 mM MgSO4.7H2O, 0.4% BSA, pH 7.4) at 0.025×10^6 per well, and then stimulated with 0.1 μg/ml streptavidin (Life Technologies) or other agonists at the indicated concentrations for 30 minutes at 37° C./5% CO2. The β-hexosaminidase released into the supernatants and in cell lysates was quantified by hydrolysis of p-nitrophenyl N-acetyl-β-D-glucosamide (Sigma-Aldrich) in 0.1 M sodium citrate buffer (pH 4.5) for 90 minutes at 37° C. The percentage of β-hexosaminidase release was calculated as a percent of total content.
LAD2 cells were washed with medium, suspended at 0.5×10^6 cells per well, and transfected with 100 nm MrgprX2 siRNA and control siRNA in antibiotic-free StemPro medium using Lipofectamine 3000 (Life Technologies) according to the manufacturer's instruction at 37° C./5% CO2. At 48 hours, knockdown was confirmed by reverse-transcriptase PCR, and the cells were used for degranulation assays.

WT and MrgprB2^MUT mice [2] = experiment: Systemic anaphylaxis assay (body core temperature); type: in vivo, mouse; details: ciprofloxacin i.v. 1.5 mg in 125 μl saline after propranolol, much smaller drop in MrgprB2^MUT
Procedure: To minimize stress, animals were transported to the procedure area the day before injections. Adult male and female mice up to 8 months of age (25 to 35 grams) were given an intraperitoneal injection of 80 μg propranolol in saline (2 mg/ml) immediately after removal from their cages, and then placed back in their cages for 30 minutes before intravenous injections. The intravenous injections were performed on one mouse at a time. For each injection, a mouse was placed in a transport box and brought to a room with no other mice, to minimize stress from vocalizations during injection. The mouse was then placed in a restrainer, and the injection was performed within 4 minutes of restraint because it was observed that longer restraint times affected body core temperature independent from the injection. […] The injection was determined to be successful only when all of the criteria were met: blood appeared in the syringe after needle insertion, all tail veins were visible after injection, and the mouse bled slightly from the injection site after needle withdrawal. The injection site was swabbed until blood stopped flowing, the mouse was placed in a separate cage from its housing cage, one mouse per cage, and returned to the room it was brought from. […] Body core temperature was measured with a rectal thermometer.

Row | SMILES | hindpaw extravasation and swelling in WT mice but not in MrgprB2^MUT mice (WT and MrgprB2^MUT mice [1]; icatibant at the clinical concentration, intraplantar 10 mg/ml, 5 μl, 15 minutes) | increase in paw thickness, without ketotifen (WT and MrgprB2^MUT mice [1]; icatibant intraplantar, no ketotifen pretreatment, n=4) [%] | histamine release from WT peritoneal mast cells (MrgprB2^MUT released substantially less) (peritoneal mast cells) | β-hexosaminidase release in MrgprX2 siRNA vs control siRNA cells (LAD2 human mast cells) | change in body temperature (WT and MrgprB2^MUT mice [2])
1 | NC(N)=NCCC[C@@H](N)C(=O)N[C@@H](CCCN=C(N)N)C(=O)N1CCC[C@H]1C(=O)N1C[C@H](O)C[C@H]1C(=O)NCC(=O)N[C@@H](Cc1cccs1)C(=O)N[C@@H](CO)C(=O)N1Cc2ccccc2C[C@@H]1C(=O)N1[C@H](C(=O)N[C@@H](CCCN=C(N)N)C(=O)O)C[C@@H]2CCCC[C@@H]21 [icatibant] | induced extensive extravasation and swelling | 40.7±2.1 | induced histamine release | significantly reduced | 
2 | O=C(O)c1cn(C2CC2)c2cc(N3CCNCC3)c(F)cc2c1=O [ciprofloxacin] |  |  | induced histamine release | significantly reduced | induced a rapid drop in body temperature
